Experimental data: PubChem BioAssay AID2060512 (Molecular Pharmacology Branch, DTP, NCI, 2025)
Where “and” joins values, the source holds several entries; their conditions need not be identical. Equal values may be shown once.

Test system: 186277-243-T-J2-PDC complex spheroid viability
Assay: Anticancer human tumor 186277-243-T-J2-PDC patient-derived colon adenocarcinoma cell line growth inhibition [GQUAD]
Conditions: for viability, T/C: stronger effect = lower value
Excerpt: DNA G-quadruplex Stabilizer Agents in Combinations in Complex Spheroids
A high-throughput screen of multi-cell type tumor spheroids was designed to identify active combinations of DNA G-quadruplex stabilizer agents and targeted small molecules. Complex spheroids include a stromal component modeled by human endothelial cells (HUVEC) and fibroblasts modeled by human mesenchymal stem cells (MSCs). The concentration ranges selected for each drug and investigational agent were based upon clinically achievable concentrations if the clinical Cmax of the agent was known.
Compounds. The drugs and investigational agents: pidnarulex (CX-5461; NSC782164), APTO-253 (NSC789042), BRACO-19 (NSC847499), peposertib (NSC802822), ceralasertib (NSC780249), elimusertib (NSC800525), camonsertib (NSC841442), AZD-1390 (NSC803789), olaparib (NSC753686), talazoparib (NSC767125), ART-558 (NSC835418), sotorasib (NSC818433), MRTX-1133 (NSC836407), SN-38 (NSC673596), topotecan (NSC609699), etoposide (NSC141540), doxorubicin (NSC123127), gemcitabine (NSC613327), 5-fluorouracil (NSC19893), paclitaxel (NSC125973), vemurafenib (NSC761431), panobinostat (NSC761190), R-306465 (JNJ-16241199; NSC773264), adavosertib (NSC754352), TP-3654 (NSC805149), carboplatin (NSC241240), KSQ-4279 (NSC840948), and staurosporine (NSC755774) were obtained from the National Cancer Institute (NCI) Developmental Therapeutics Program Chemical Repository (34). The FDA-approved anticancer drug set is available from the NCI Developmental Therapeutics Program. […] The stock solutions were prepared in dimethyl sulfoxide (DMSO, Sigma-Aldrich, St. Louis, MO, cat. D2650) at 800-fold the tested concentration and stored at -70 degrees C prior to their use. All drugs and investigational agents were tested over a range starting from a high concentration at or near the clinical Cmax and decreasing in half-log increments. If the clinical Cmax for an agent had not been determined, the highest concentration tested was 10 microM.
2.3 Cell Culture. All cells were maintained in an incubator at 37 degrees C and 5% CO2 with 95% humidity. The PDC lines were cultured according to standard operating procedures established by the NCI PDMR. All PDCs were thawed and cultured in Matrigel-coated flasks prepared with a working solution of 1X Ham's F-12 nutrient mix, without supplementation (Invitrogen, cat. 11765054), 100 U/mL penicillin-streptomycin (Invitrogen, cat. 15140122), and 2.5% Matrigel (Corning Inc., cat. 354248) for the first three passages. The 857933-349-R-J2-PDC line was cultured in 6C/Colon 1B media, which includes advanced DMEM/F-12 (Thermo Fisher Scientific, cat. 12634028), 10 mM HEPES (Thermo Fisher Scientific, cat. 15630080), 1X GlutaMAX supplement (Thermo Fisher Scientific, cat. 35050061), 0.1 mg/mL primocin (InvivoGen, cat. ant-pm-2), 10% defined fetal bovine serum, heat inactivated (HyClone Laboratories Inc., cat. SH30070.03HI), 50% L-WRN conditioned media (ATCC, cat. CRL-3276), 1.25 mM N-Acetyl-L-cysteine (Sigma-Aldrich, cat. A9165), 10 mM nicotinamide (Sigma-Aldrich, cat. N0636), 1X B-27 supplement (Thermo Fisher Scientific, cat. 17504044), 1X N-2 supplement (Thermo Fisher Scientific, cat. 17502048), 10 microM Y-27632 dihydrochloride (Tocris Bioscience, cat. 1254), and 50 ng/mL human EGF recombinant protein (Thermo Fisher Scientific, cat. PHG0311). The 485176-168-R4-J1-PDC line was cultured in Panc media, which includes all 6C/Colon 1B media components plus 100 ng/mL human FGF-10 (Thermo Fisher Scientific, cat. 100-26), 500 nM SB-431542 (Selleckchem, cat. S1067), and gastrin (Tocris, cat. 3006).
[…]
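Note: spheroids exposed to drugs for 7 days.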
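Throughout, for viability, T/C: 100% = DMSO vehicle control viability.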

With Cn1ncnc1[C@H]1c2n[nH]c(=O)c3cc(F)cc(c23)N[C@@H]1c1ccc(F)cc1 + Cc1cnc(CNC(=O)c2c(=O)c3ccc(N4CCCN(C)CC4)nc3n3c2sc2ccccc23)cn1 the IC50 (curve of first compound, second compound 0.0316 µM) was over 316 nM, the IC50 (curve of first compound, second compound 0.1 µM) was over 316 nM and the IC50 (curve of first compound, second compound 0.316 µM) was over 316 nM. It also gave an IC50 (curve of first compound, second compound 1 µM) of over 316 nM, an IC50 (curve of first compound, second compound 3.16 µM) of over 316 nM and an IC50 (curve of first compound, second compound 10 µM) of under 0.999 nM. For the same compound, the viability, T/C (second compound 0.0316 µM, first compound 0.000999 µM) was 107%, the viability, T/C (second compound 0.0316 µM, first compound 0.00316 µM) was 101% and the viability, T/C (second compound 0.0316 µM, first compound 0.00999 µM) was 108%. For the same compound, the viability, T/C (second compound 0.0316 µM, first compound 0.0316 µM) was 78.6%, the viability, T/C (second compound 0.0316 µM, first compound 0.0999 µM) was 85.2% and the viability, T/C (second compound 0.0316 µM, first compound 0.316 µM) was 78.2%. For the same compound, the viability, T/C (second compound 0.1 µM, first compound 0.000999 µM) was 102%, the viability, T/C (second compound 0.1 µM, first compound 0.00316 µM) was 103% and the viability, T/C (second compound 0.1 µM, first compound 0.00999 µM) was 84.3%. The viability, T/C (second compound 0.1 µM, first compound 0.0316 µM) was 94.8%, the viability, T/C (second compound 0.1 µM, first compound 0.0999 µM) was 85.5% and the viability, T/C (second compound 0.1 µM, first compound 0.316 µM) was 71.6%. For the same compound, the viability, T/C (second compound 0.316 µM, first compound 0.000999 µM) was 75.7%, the viability, T/C (second compound 0.316 µM, first compound 0.00316 µM) was 79.2% and the viability, T/C (second compound 0.316 µM, first compound 0.00999 µM) was 80.1%. The viability, T/C (second compound 0.316 µM, first compound 0.0316 µM) was 77%, the viability, T/C (second compound 0.316 µM, first compound 0.0999 µM) was 73.1% and the viability, T/C (second compound 0.316 µM, first compound 0.316 µM) was 70.3%. For the same compound, the viability, T/C (second compound 1 µM, first compound 0.000999 µM) was 65.6%, the viability, T/C (second compound 1 µM, first compound 0.00316 µM) was 57.3% and the viability, T/C (second compound 1 µM, first compound 0.00999 µM) was 59.2%. It also gave a viability, T/C (second compound 1 µM, first compound 0.0316 µM) of 59.4%, a viability, T/C (second compound 1 µM, first compound 0.0999 µM) of 62.5% and a viability, T/C (second compound 1 µM, first compound 0.316 µM) of 52.8%. It also gave a viability, T/C (second compound 3.16 µM, first compound 0.000999 µM) of 48.1%, a viability, T/C (second compound 3.16 µM, first compound 0.00316 µM) of 55.6% and a viability, T/C (second compound 3.16 µM, first compound 0.00999 µM) of 52.5%. The viability, T/C (second compound 3.16 µM, first compound 0.0316 µM) was 51.4%, the viability, T/C (second compound 3.16 µM, first compound 0.0999 µM) was 54% and the viability, T/C (second compound 3.16 µM, first compound 0.316 µM) was 48.7%. The viability, T/C (second compound 10 µM, first compound 0.000999 µM) was 46%, the viability, T/C (second compound 10 µM, first compound 0.00316 µM) was 42.1% and the viability, T/C (second compound 10 µM, first compound 0.00999 µM) was 43.4%. For the same compound, the viability, T/C (second compound 10 µM, first compound 0.0316 µM) was 46.9%, the viability, T/C (second compound 10 µM, first compound 0.0999 µM) was 55.7% and the viability, T/C (second compound 10 µM, first compound 0.316 µM) was 42.5%.
In the case of Cc1[nH]c2ccc(F)cc2c1-c1nc2c3cccnc3c3ncccc3c2[nH]1, the viability, T/C (compound 0.0316 µM) is reported as 100% [middle of 12 runs], the viability, T/C (compound 0.1 µM) is reported as 101% [middle of 12 runs] and the viability, T/C (compound 1 µM) is reported as 107% [middle of 12 runs]. The viability, T/C (compound 3.16 µM) was 98.9% [middle of 12 runs], the viability, T/C (compound 10 µM) was 92.4% [middle of 12 runs] and the IC50 (compound alone, run of 04/16/2024) was over 10000 nM. It also gave an IC50 (compound alone, run of 04/22/2024) of over 10000 nM.
In the case of O=C(NO)c1cnc(N2CCN(S(=O)(=O)c3ccc4ccccc4c3)CC2)nc1, the viability, T/C (compound 0.0316 µM) is reported as 108% and 104% and 95.6%, the viability, T/C (compound 0.1 µM) is reported as 87.7% and 95.5% and 89.9% and the viability, T/C (compound 0.316 µM) is reported as 7.49% and 8.52% and 11.5%. For the same compound, the viability, T/C (compound 1 µM) was 0.33% and 0.31% and 0.48%, the viability, T/C (compound 3.16 µM) was 0.27% and 0.25% and 0.13% and the viability, T/C (compound 10 µM) was 0.27% and 0.25% and 0.15%. The IC50 (curve of compound) was 172 nM and 183 nM and 180 nM.
